Data on 2 compounds can be found in US7718767B2, “3-ether and 3-thioether substituted cyclosporin derivatives for the treatment and prevention of hepatitis C infection” (Scynexis, Inc., priority 2006, dated 2010).

As a reminder, the IC50 is the concentration at which inhibition is half-maximal. For orientation: EC50 means the concentration needed to bring the measured effect to its halfway point. Read a low EC50 as an effect from little substance. Usually EC90 stands for the concentration needed for an effect of 90%. A word on the IC90: it is the concentration at which the effect reaches the 90% level.

The structures appear in SMILES notation.

Series [1] concerns CEM-SS cells. Description: Compound cytotoxicity in the HIV MTS assay (cells plus drug only). The class given is cell-based, human. Conditions: 50% inhibition of cell growth. The protocol: In this MTS cytoprotection assay, each experiment included cell control wells (cells only), virus control wells (cells plus virus), drug toxicity wells (cells plus drug only), drug colorimetric control wells (drug only) as well as experimental wells (drug plus cells plus virus). […] HIV-1RF was added to each well in a volume of 50 μL, the amount of virus determined to give approximately 90% cell killing at 6 days post-infection. At assay termination, assay plates were stained with the soluble tetrazolium-based dye MTS (CellTiter 96 Reagent, Promega) to determine cell viability and quantify compound toxicity. MTS is metabolized by the mitochondria enzymes of metabolically active cells to yield a soluble formazan product, providing a quantitative analysis of cell viability and compound cytotoxicity. The assay was validated in parallel experiments using Zidovudine (3′-azido-3′-deoxythymidine or AZT) as a positive control.
A general note: Tetrazolium assays rely on reduction of a dye to a coloured formazan, in cell work by metabolically active cells.

The subject of series [2] is HIV-1IIIB. Description: HIV MTS cytoprotection assay in CEM-SS cells. The class given is cell-based, human immunodeficiency virus-1. To be noted: 6 days post-infection, concentration inhibiting virus replication by 50%.
Series [3] relates to HCV RNA replicon ET. Description: HCV RNA replicon luciferase reporter assay, antiviral activity. The class given is cell-based. To be noted: ET replicon cells, 72 h, LUC activity; for EC50: concentration reducing viral replication by 50%; for EC90: concentration reducing viral replication by 90%. (In general: A replicon is a self-replicating genome or part of one, used to study replication in cells.)

Series [4] deals with human hepatoma cell line ET. Description: Cytotoxicity in the replicon cell line, colorimetric assay of cell numbers. Conditions: ET cells, 72 h; for IC50: read-out: Cytotoxicity IC50, concentration inhibiting cell viability by 50%; for IC90: read-out: Cytotoxicity IC90, concentration inhibiting cell viability by 90%. From the text:
Compounds were examined in the human hepatoma cell line ET (lub ubi heo/ET), a HCV RNA replicon containing a stable luciferase (LUC) reporter. The HCV RNA replicon ET contains the 5′ end of HCV (with the HCV Internal Ribosome Entry Site (IRES) and the first few amino acids of the HCV core protein) which drives the production of a firefly luciferase (LUC), ubiquitin, and neomycin phosphotransferase (NeoR) fusion protein. Ubiquitin cleavage releases the LUC and NeoR proteins. The EMCV IRES element controls the translation of the HCV […] NS3-NS5. The NS3 protein cleaves the HCV polyprotein to release the mature NS3, NS4A, NS4B, NS5A and NS5B proteins that are required for HCV replication. At the 3′ end of the replicon is the authentic 3′ NTR of HCV. The activity of the LUC reporter is directly proportional to HCV replication levels and positive-control antiviral compounds produce a reproducible antiviral response using the LUC endpoint.
The compounds were dissolved in DMSO at five half-log concentrations each, ranging from either 0.02 to 2.0 μM, 0.03 to 3 μM, […], or 1 to 100 μM. Subconfluent cultures of the ET line were plated out into 96 well plates dedicated for the analysis of cell numbers (cytotoxicity) or antiviral activity and the next day the compounds were added to the appropriate wells. The cells were processed 72 h later when the cells were still subconfluent. […] The activity of the LUC reporter is directly proportional to HCV RNA levels in the human cell line. The HCV-replicon assay was validated in parallel experiments using interferon-alpha-2b as a positive control.

For the compound `C/C=C/C[C@@H](C)[C@@H](O)[C@H]1C(=O)N[C@@H](CC)C(=O)N(C)C(OCCOC)C(=O)N(C)[C@@H](CC(C)(C)O)C(=O)N[C@@H](C(C)C)C(=O)N(C)[C@@H](CC(C)C)C(=O)N[C@@H](C)C(=O)N[C@H](C)C(=O)N(C)[C@@H](CC(C)C)C(=O)N(C)[C@@H](CC(C)C)C(=O)N(C)[C@@H](C(C)C)C(=O)N1C` (stereo partly drawn) [X, 3-[2-(methoxy)ethoxy]-4-(gamma-hydroxymethylleucine)cyclosporin], the IC50 in series [1] was greater than 20000 nM. Further, in series [2], the midpoint of the response, the EC50, lay at 1000 nM. Further, in series [3], the response was half-maximal at 480 nM (EC50) and the EC90 was 1500 nM. In addition, in series [4], the IC50 is greater than 2000 nM and the IC90 is greater than 2000 nM.

As to `C/C=C/C[C@@H](C)[C@@H](O)[C@H]1C(=O)N[C@@H](CC)C(=O)N(C)[C@H](OCCCOC)C(=O)N(C)[C@@H](CC(C)(C)O)C(=O)N[C@@H](C(C)C)C(=O)N(C)[C@@H](CC(C)C)C(=O)N[C@@H](C)C(=O)N[C@H](C)C(=O)N(C)[C@@H](CC(C)C)C(=O)N(C)[C@@H](CC(C)C)C(=O)N(C)[C@@H](C(C)C)C(=O)N1C` [Y, 3-[3-(methoxy)propoxy]-4-(gamma-hydroxymethylleucine)cyclosporin], the 50% inhibitory concentration (IC50) in series [1] is greater than 20000 nM. Moreover, the EC50 in series [2] amounted to 520 nM. In series [3], the concentration giving a half-maximal response (EC50) was 300 nM and the EC90 was found to be 950 nM. In addition, in series [4], the IC50 was greater than 2000 nM and the IC90 was greater than 2000 nM.
